Source: patent publication US20240228488A1 (TAKEDA PHARMACEUTICAL COMPANY LIMITED, priority 2021, published 2024)

Tests used:
[1] = target: human activated kallikrein enzyme (Homo sapiens, UniProt P03952); test: Plasma kallikrein inhibition, fluorogenic PFR-AMC substrate, 500 pM activated kallikrein format; format: biochemical; conditions: 500 pM activated kallikrein, 300 uM PFR-AMC, 30 min preincubation, 10 min reaction; read-out: Primary Dose Response Assay: Average EC50
Summary of the method: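 Enzyme (500 pM) was preincubated with inhibitor for 30 min at room temperature in 20 mM Tris pH 7.5, 1 mM EDTA, 150 mM NaCl, 0.1% PEG-400 and 0.1% Triton X-100. The reaction was started with 300 uM PFR-AMC, run 10 min, and fluorescence read at 460 nm (380 nm excitation). EC50 derived.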

plasma kallikrein = target: T1, plasma kallikrein (Homo sapiens, UniProt P03952); test: Neat human plasma assay, FXIIa contact pathway-activated, PFR-AMC substrate; format: biochemical; conditions: citrated human plasma 78% final, 10 nM human FXIIa, 100 μM PFR-AMC; read-out: Human Plasma Assay: IC90
T1 construct: from tissue
T1 sequence (P03952 391-638 limits assumed): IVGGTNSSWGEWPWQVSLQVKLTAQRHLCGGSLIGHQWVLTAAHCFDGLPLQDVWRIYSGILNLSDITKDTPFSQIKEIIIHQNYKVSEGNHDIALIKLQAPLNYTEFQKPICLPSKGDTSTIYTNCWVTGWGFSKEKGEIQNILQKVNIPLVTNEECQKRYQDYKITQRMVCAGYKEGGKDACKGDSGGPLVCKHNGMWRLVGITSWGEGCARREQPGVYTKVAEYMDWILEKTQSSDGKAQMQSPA
T1 sequence (P03952 20-390 partner limits assumed): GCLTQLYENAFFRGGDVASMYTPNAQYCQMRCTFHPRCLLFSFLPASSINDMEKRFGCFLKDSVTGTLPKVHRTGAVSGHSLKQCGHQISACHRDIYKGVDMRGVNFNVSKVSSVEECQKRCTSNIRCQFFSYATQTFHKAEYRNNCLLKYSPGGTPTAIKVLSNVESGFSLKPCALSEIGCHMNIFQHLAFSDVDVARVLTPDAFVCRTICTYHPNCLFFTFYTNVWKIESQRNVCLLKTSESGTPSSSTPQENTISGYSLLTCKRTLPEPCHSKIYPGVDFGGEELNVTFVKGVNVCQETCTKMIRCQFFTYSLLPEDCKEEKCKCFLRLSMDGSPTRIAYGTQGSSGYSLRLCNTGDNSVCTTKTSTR
Summary of the method: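 Citrated human plasma (78% final) with compound, contact-activated by 10 nM human FXIIa in pKal buffer pH 7.5, with 100 μM PFR-AMC. Fluorescence (360/480 nm) followed 5 min at room temperature; rates versus concentration fitted by 4-parameter equation for IC50/IC90.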

Chain of human activated kallikrein enzyme (P03952 391-638 limits assumed): as the sequence (P03952 391-638 limits assumed) above
Chain of human activated kallikrein enzyme (P03952 20-390 partner limits assumed): as the sequence (P03952 20-390 partner limits assumed) above

Row | Compound | EC50 [1] | IC90 (plasma kallikrein)
1 | CS(=O)(=O)c1cc(C2CC2)cn2cc(CNc3cc(NC(=O)[C@H]4C[C@@H]4c4cccc(Cl)c4)ncn3)nc12 (racemic) [Example 60, rac-(1S*,2S*)-2-(3-chlorophenyl)-N-(6-(((6-cyclopropyl-8-(methylsulfonyl)imidazo[1,2-α]pyridin-2-yl)methyl)amino)pyrimidin-4-yl)cyclopropane-1-carboxamide] | 1 to 10 nM | 10000 to 48000 nM
2 | CN1CCC(O)(c2cc(C3CC3)cn3cc(CNc4cc(NC(=O)[C@H]5C[C@@H]5c5cccc(Cl)c5)ncn4)nc23)CC1 [Example 401, (1S,2S)-2-(3-chlorophenyl)-N-(6-(((6-cyclopropyl-8-(4-hydroxy-1-methylpiperidin-4-yl)imidazo[1,2-a]pyridin-2-yl)methyl)amino)pyrimidin-4-yl)cyclopropane-1-carboxamide] | < 1 nM | 400 to 1500 nM
3 | CN1CCN(c2cc(C3CC3)cn3cc(CNc4nccc(NC(=O)[C@H]5C[C@@H]5c5cccc(Cl)c5)n4)nc23)CC1 [Example 613, (1S,2S)-2-(3-chlorophenyl)-N-(2-(((6-cyclopropyl-8-(4-methylpiperazin-1-yl)imidazo[1,2-a]pyridin-2-yl)methyl)amino)pyrimidin-4-yl)cyclopropane-1-carboxamide] | 1 to 10 nM | 400 to 1500 nM
4 | Cc1ccnc([C@H]2C[C@@H]2C(=O)Nc2cc(N(C)Cc3cn4cc(C5CC5)cc(N5CC(=O)N(CCOCc6ccccc6)C5=O)c4n3)cc(C3CC3)n2)n1 [Example I-636, (1S,2S)—N-(4-(((8-(3-(2-(benzyloxy)ethyl)-2,4-dioxoimidazolidin-1-yl)-6-cyclopropylimidazo[1,2-a]pyridin-2-yl)methyl)(methyl)amino)-6-cyclopropylpyridin-2-yl)-2-(4-methylpyrimidin-2-yl)cyclopropane-1-carboxamide] | 1 to 10 nM | 1500 to 10000 nM
5 | N#Cc1ccc(Cl)cc1[C@H]1C[C@@H]1C(=O)Nc1cc(NCc2cn3cc(C4CC4)ccc3n2)ccn1 (racemic) [Example 82, rac-(1S*,2S*)-2-(5-chloro-2-cyanophenyl)-N-(4-(((6-cyclopropylimidazo[1,2-a]pyridin-2-yl)methyl)amino)pyridin-2-yl)cyclopropane-1-carboxamide] | < 1 nM | 10000 to 48000 nM
6 | Cc1cc(C)nc([C@H]2C[C@@H]2C(=O)Nc2cc(NCc3cn4cc(C5CC5)cc(N5CC(=O)N(C)C5=O)c4n3)ncn2)n1 (racemic) [Example 497, rac-(1S*,2S*)-N-(6-(((6-cyclopropyl-8-(3-methyl-2,4-dioxoimidazolidin-1-yl)imidazo[1,2-a]pyridin-2-yl)methyl)amino)pyrimidin-4-yl)-2-(4,6-dimethylpyrimidin-2-yl)cyclopropane-1-carboxamide] | < 1 nM | 400 to 1500 nM
7 | O=C(Nc1cc(NCc2cn3cc(C4CC4)cc(C4(F)COC4)c3n2)ccn1)[C@H]1C[C@@H]1c1cccc(Cl)c1 (racemic) [Example 294, rac-(1S*,2S*)-2-(3-chlorophenyl)-N-(4-(((6-cyclopropyl-8-(3-fluorooxetan-3-yl)imidazo[1,2-a]pyridin-2-yl)methyl)amino)pyridin-2-yl)cyclopropane-1-carboxamide] | < 1 nM | 10000 to 48000 nM
8 | CN1CCC(F)(c2cc(C3CC3)cn3cc(CNc4ccnc(NC(=O)[C@H]5C[C@@H]5c5cccc(Cl)c5)c4)nc23)CC1 [Example I-229, (1S,2S)-2-(3-chlorophenyl)-N-(4-(((6-cyclopropyl-8-(4-fluoro-1-methylpiperidin-4-yl)imidazo[1,2-a]pyridin-2-yl)methyl)amino)pyridin-2-yl)cyclopropane-1-carboxamide] | < 1 nM | < 400 nM
9 | O=C(Nc1cc(NCc2cn3cc(C4CC4)ccc3n2)ncn1)[C@H]1C[C@@H]1c1cccc(Cl)c1 (single isomer, unassigned) [Example 57] | 1 to 10 nM | > 48000 nM

Continued, values first:

Row | EC50 [1] | IC90 (plasma kallikrein) | Compound
10 | < 1 nM | 400 to 1500 nM | Cc1ccnc([C@H]2C[C@@H]2C(=O)Nc2cc(NCc3cn4cc(C5CC5)cc(N5CCCC5=O)c4n3)ncn2)n1 [Example 377, (1S,2S)-N-(6-(((6-cyclopropyl-8-(2-oxopyrrolidin-1-yl)imidazo[1,2-a]pyridin-2-yl)methyl)amino)pyrimidin-4-yl)-2-(4-methylpyrimidin-2-yl)cyclopropane-1-carboxamide]
11 | < 1 nM | < 400 nM | COCCN1CCN(c2cc(C3CC3)cn3cc(CNc4ccnc(NC(=O)[C@H]5C[C@@H]5c5cccc(Cl)c5)c4)nc23)CC1 [Example 599, (1S,2S)-2-(3-chlorophenyl)-N-(4-(((6-cyclopropyl-8-(4-(2-methoxyethyl)piperazin-1-yl)imidazo[1,2-a]pyridin-2-yl)methyl)amino)pyridin-2-yl)cyclopropane-1-carboxamide]
12 | < 1 nM | < 400 nM | O=C1CN(c2cc(C3CC3)cn3cc(CNc4cc(NC(=O)[C@H]5C[C@@H]5c5cc(Cl)ccn5)nc(O)n4)nc23)C(=O)N1 [Example 487, (1S,2S)-2-(4-chloropyridin-2-yl)-N-(6-(((6-cyclopropyl-8-(2,4-dioxoimidazolidin-1-yl)imidazo[1,2-a]pyridin-2-yl)methyl)amino)-2-hydroxypyrimidin-4-yl)cyclopropane-1-carboxamide]
13 | < 1 nM | 400 to 1500 nM | COc1ccnc([C@H]2C[C@@H]2C(=O)Nc2cc(N[C@H](C)c3cn4cc(C5CC5)cc(N5CC(=O)N(C)C5=O)c4n3)ncn2)n1 (relative stereo) [Example 529, rac-(1S*,2S*)-N-(6-(((R)-1-(6-cyclopropyl-8-(3-methyl-2,4-dioxoimidazolidin-1-yl)imidazo[1,2-a]pyridin-2-yl)ethyl)amino)pyrimidin-4-yl)-2-(4-methoxypyrimidin-2-yl)cyclopropane-1-carboxamide]
14 | < 1 nM | < 400 nM | Cc1ccnc([C@H]2C[C@@H]2C(=O)Nc2nccc(NCc3cn4cc(C5CC5)cc(N5CC(=O)N(C)C5=O)c4n3)n2)n1 (racemic) [Example 520, rac-(1S*,2S*)-N-(4-(((6-cyclopropyl-8-(3-methyl-2,4-dioxoimidazolidin-1-yl)imidazo[1,2-a]pyridin-2-yl)methyl)amino)pyrimidin-2-yl)-2-(4-methylpyrimidin-2-yl)cyclopropane-1-carboxamide]
15 | < 1 nM | 1500 to 10000 nM | O=C(Nc1cc(NCc2cn3cc(C4CC4)cc(N4CCOC4=O)c3n2)ncn1)[C@H]1C[C@@H]1c1cccc(Cl)c1 [Example I-174, (1S,2S)-2-(3-chlorophenyl)-N-(6-(((6-cyclopropyl-8-(2-oxooxazolidin-3-yl)imidazo[1,2-a]pyridin-2-yl)methyl)amino)pyrimidin-4-yl)cyclopropane-1-carboxamide]
16 | < 1 nM | 400 to 1500 nM | O=C(Nc1cc(NCc2cn3cc(C4CC4)cc(N4CC(=O)N(CCO)C4=O)c3n2)ncn1)[C@H]1C[C@@H]1c1cccc(Cl)c1 [Example 463, (1S,2S)-2-(3-chlorophenyl)-N-(6-(((6-cyclopropyl-8-(3-(2-hydroxyethyl)-2,4-dioxoimidazolidin-1-yl)imidazo[1,2-a]pyridin-2-yl)methyl)amino)pyrimidin-4-yl)cyclopropane-1-carboxamide]
17 | < 1 nM | < 400 nM | Cc1ccnc([C@H]2C[C@@H]2C(=O)Nc2ncc(CO)c(NCc3cn4cc(C5CC5)cc(N5CC(=O)N(C)C5=O)c4n3)n2)n1 (racemic) [Example 627, rac-(1S*,2S*)—N-(4-(((6-cyclopropyl-8-(3-methyl-2,4-dioxoimidazolidin-1-yl)imidazo[1,2-a]pyridin-2-yl)methyl)amino)-5-(hydroxymethyl)pyrimidin-2-yl)-2-(4-methylpyrimidin-2-yl)cyclopropane-1-carboxamide]
18 | < 1 nM | < 400 nM | Cc1ccnc([C@H]2C[C@@H]2C(=O)Nc2cc(NCc3cn4cc(C5CC5)cc(N5CC(=O)N(C)C5=O)c4n3)c(C(F)(F)F)nn2)n1 [Example I-640, (1S,2S)—N-(5-(((6-cyclopropyl-8-(3-methyl-2,4-dioxoimidazolidin-1-yl)imidazo[1,2-a]pyridin-2-yl)methyl)amino)-6-(trifluoromethyl)pyridazin-3-yl)-2-(4-methylpyrimidin-2-yl)cyclopropane-1-carboxamide]
19 | < 1 nM | < 400 nM | O=C(Nc1cc(NCc2cn3cc(C4CC4)cc(N4CNCC4=O)c3n2)ncn1)[C@H]1C[C@@H]1c1cccc(Cl)c1 [Example I-19, (1S,2S)-2-(3-chlorophenyl)-N-(6-(((6-cyclopropyl-8-(5-oxoimidazolidin-1-yl)imidazo[1,2-a]pyridin-2-yl)methyl)amino)pyrimidin-4-yl)cyclopropane-1-carboxamide]
20 | < 1 nM | < 400 nM | COCc1cnc(NC(=O)[C@H]2C[C@@H]2c2nccc(C)n2)nc1NCc1cn2cc(C3CC3)cc(N3CC(=O)N(C)C3=O)c2n1 (racemic) [Example 621, rac-(1S*,2S*)—N-(4-(((6-cyclopropyl-8-(3-methyl-2,4-dioxoimidazolidin-1-yl)imidazo[1,2-a]pyridin-2-yl)methyl)amino)-5-(methoxymethyl)pyrimidin-2-yl)-2-(4-methylpyrimidin-2-yl)cyclopropane-1-carboxamide]
21 | < 1 nM | 1500 to 10000 nM | Cc1ccnc([C@H]2C[C@@H]2C(=O)Nc2cc(OC(C)c3cn4cc(C5CC5)cc(N5CC(=O)N(C)C5=O)c4n3)nc(C)n2)n1 (stereo partly drawn) [Example 552, (1S,2S)-N-(6-(1-(6-cyclopropyl-8-(3-methyl-2,4-dioxoimidazolidin-1-yl)imidazo[1,2-a]pyridin-2-yl)ethoxy)-2-methylpyrimidin-4-yl)-2-(4-methylpyrimidin-2-yl)cyclopropane-1-carboxamide]
